Consider one compound from US20250073209A1, “COVALENT TARGETING OF RhoA FOR CANCER THERAPY” (The University of Hong Kong, priority 2023, published 2025).

Series [1] relates to HT29 cells. As to the kind of experiment: Wound healing assay. It is filed as cell-based, human. The method, then: For wound healing assay, HT29 cells were seeded in 90% confluency, a wound was scratched using a P-20 tip the next day. Cell debris was washed with PBS then aspirated. Then, complete DMEM medium with CL16 or Rhosin with corresponding concentration was added to the cells. Wound closure was recorded every 24 hours under light microscope with 10× objective and measurement of wound area was made by ImageJ.
As discussed above, overexpression/hyperactivity of RhoA associated with poor prognosis and aggressive behaviors of CRCs (FIG. 8A). Thus, the anti-cancer and anti-metastatic properties of CL16 in CRCs were explored. First, it was confirmed that genetic knockdown of RhoA by siRNA slowed down colony formation and migration of CRCs by using staining (data not shown) and wound healing assay (FIG. 4A). MTT assay was used to determine cell viability of CRCs and normal colon fibroblast CCD-18Co cells treated with CL16 for 48 h (n=3 different biological replicates/group). A much lower expression level of RhoA in normal colon fibroblast CCD-18Co cells was also determined, as compared to CRCs, by western blotting (data not shown). […] HT29 cells were transfected with siRNA (5 μM) using Dharmafect1 for 48 hours, and protein expressions were then investigated by immunoblotting.

Series [2] has as its target Cdc42 (Homo sapiens, UniProt P60953). As to the kind of experiment: Cdc42-GTP PAK-PBD pull-down in HT29 cells. Particulars: HT29, complete medium 24 h. It is filed as cell-based. Further details: endogenous in cells; host or cells: HT29. From the text:
The procedure is similar to that for RhoA-GTP assay, except that Rac1-GTP and Cdc42-GTP in CRC cells were first enriched by Rac1 Pull-Down Activation Assay Biochem Kit (Cytoskeleton #BK035) instead of using the RhoA kit. The enriched Rac1-GTP and Cdc42-GTP were then immunoblotted by Rac1/2/3 antibody (CST #2465) and Cdc42 antibody (CST #2462) respectively.
GTP loading onto RhoA is critical for the protein activation and mediating downstream signals. In view of the inhibitions of GDP-to-GTP exchange of RhoA by CL16 in vitro as discussed above, effects of CL16 on RhoA biology in colorectal cancer cells were examined. In the serum starvation-re-stimulation experiment, HCT116 cells were grown in serum-free medium with CL16, Rhosin or solvent control for 24 h, followed by stimulation with 10% FBS for 10 min. The cells were then lysed and the RhoA activity was assayed by the level of RhoA-GTP, which is the active form of RhoA. […] HT29 cells were incubated with solvent vehicle, CL16 or Rhosin in complete medium for 24 h. The cells were then washed, lysed and subjected to rhotekin pull-down for blotting RhoA-GTP, or PAK-PBD pull-down for blotting Rac1-GTP and Cdc42-GTP. Confocal fluorescence images from HCT116 and HT29 cells expressing FRET RhoA-biosensor in the serum starvation-restimulation experiment were taken.

For series [3], the system named is HT29 cells. The series can be described thus: Transwell (Matrigel) invasion assay. In kind it is cell-based, human. Particulars: HT29, 24 h.
In series [4] the test system is normal colon fibroblast CCD-18Co cells. As to the kind of experiment: MTT assay on normal colon fibroblasts. In kind it is cell-based, human. Particulars: 48 h, compared with CRCs. As to the method: HCT116 cells was seeded at 2,500 cells/well; HT29, LOVO and SW620 cells were seeded at 4,000 cells/well; CCD-18Co cells were seeded at 10,000/well; and SW480 cells were seeded at 12,000 cells/well in 96 well plate in triplicates. Cells were treated with a concentration gradient of CL16 for 48 hours. Then, cells were incubated with 10% 3-(4,5-Dimethylthiazol-2-yl)-2,5-diphenyltetrazolium bromide (MTT) solution ([…]) in 37° C. for 4 hours. Cells were then lyzed in 10% SDS in […] HCl. Absorbance of individual well was measured at 570 nm. IC50 values were analyzed by nonlinear best-fit regression using Prism Graphpad 9.
As discussed above, overexpression/hyperactivity of RhoA associated with poor prognosis and aggressive behaviors of CRCs (FIG. 8A). Thus, the anti-cancer and anti-metastatic properties of CL16 in CRCs were explored. First, it was confirmed that genetic knockdown of RhoA by siRNA slowed down colony formation and migration of CRCs by using staining (data not shown) and wound healing assay (FIG. 4A). MTT assay was used to determine cell viability of CRCs and normal colon fibroblast CCD-18Co cells treated with CL16 for 48 h (n=3 different biological replicates/group). A much lower expression level of RhoA in normal colon fibroblast CCD-18Co cells was also determined, as compared to CRCs, by western blotting (data not shown). […]

Series [5] deals with RhoA (Homo sapiens, UniProt P61586). The series can be described thus: LC-MS/MS on HCT116 cells treated with CL16. Further details: endogenous in cells; host or cells: HCT116. In kind it is cell-based. Particulars: CL16 25 or 50 μM, 4 hours. The method, then:
HCT116 cells were treated with DMSO or CL16 (25 or 50 μM) in complete medium for 4 hours, washed with PBS, harvested, and lysed in PBS by sonication. The protein amount of the samples was determined by BCA assay and normalized. The cell lysates in PBS were reduced by TCEP (1 mM) at 65° C. for 30 min, followed by alkylation with iodoacetamide (18 mM) at 37° C. for 30 min in the dark. The mixtures were added with prechilled acetone (600 μL) for protein precipitation at −20° C. overnight. The samples were centrifuged at 8000g for 10 min at 4° C. The supernatant was discarded and the dried pellet was resuspended in […] in PBS (100 μL). Sequencing grade trypsin (Promega #V5111) were added to the samples for overnight digestion at 37° C. with constant shaking. The solutions were then acidified with formic acid (FA; final concentration 5%), centrifuged at 13,200 rpm for 30 min at 4° C. The supernatant was collected and stored at −80° C. before MS analysis.
The peptide solutions were dried and desalted by C18 Stage tips, and the peptides were loaded onto an Aurora C18 UHPLC column (75 μm i.d.×25 cm length×1.6 μm particle size (IonOpticks Australia) coupled to timsTOF Pro mass spectrometer (Bruker). […]

Sequence of RhoA (P61586 whole entry): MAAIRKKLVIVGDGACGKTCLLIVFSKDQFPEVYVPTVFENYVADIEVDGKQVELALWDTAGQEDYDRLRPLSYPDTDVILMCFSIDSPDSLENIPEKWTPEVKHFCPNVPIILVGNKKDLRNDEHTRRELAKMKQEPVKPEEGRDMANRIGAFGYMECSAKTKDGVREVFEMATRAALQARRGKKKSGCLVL
Sequence of Cdc42 (P60953 whole entry): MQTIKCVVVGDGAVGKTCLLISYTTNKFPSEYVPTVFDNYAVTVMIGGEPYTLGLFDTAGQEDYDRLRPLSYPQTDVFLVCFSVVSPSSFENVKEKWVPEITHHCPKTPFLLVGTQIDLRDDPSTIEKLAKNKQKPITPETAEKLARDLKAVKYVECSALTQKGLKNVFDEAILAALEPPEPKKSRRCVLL

Consider `O=C(CCl)N1N=C(c2cc3ccccc3o2)CC1c1ccco1` (centres unmarked) [CL16], for which the cell migration entry in series [1] was “good efficacy in reducing HT29 cell migration and invasion”. Moreover, the “Cdc42 activity (Cdc42-GTP)” value in series [2] was “no significant changes”. Besides, the cell invasion result in series [3] was “good efficacy in reducing HT29 cell migration and invasion”. Further, the “toxicity in normal cells (cell viability)” value in series [4] is “much less toxic”. Further, in series [5], the “covalent modification site on RhoA” value is “Cys16”.
